ChEMBL document CHEMBL4261482, “Development of small molecular compounds targeting cancer stem cells” (Medchemcomm, 2017)

What was measured:
[1] = Cytotoxicity against human KOCL48 cells assessed as decrease in cell viability after 48 hrs by MTT assay; format: functional, cell-based
PA-1 = assay: Cytotoxicity against human PA1 cells assessed as decrease in cell viability after 72 hrs by CCK8 assay; format: functional, cell-based; conditions: PA-1, 72 h
SW626 = assay: Cytotoxicity against human SW626 cells assessed as decrease in cell viability after 72 hrs by CCK8 assay; format: functional, cell-based; conditions: SW626, 72 h
[2] = Cytotoxicity against human OVTOKO cells assessed as decrease in cell viability after 72 hrs by CCK8 assay; format: functional, cell-based
K562 = assay: Cytotoxicity against human K562 cells assessed as decrease in cell viability after 48 hrs by MTT assay; format: functional, cell-based; conditions: K562, 48 h
Daudi = assay: Cytotoxicity against human Daudi cells assessed as decrease in cell viability after 72 hrs by CCK8 assay; format: functional, cell-based
CAKI-2 = assay: Cytotoxicity against human Caki2 cells assessed as decrease in cell viability after 72 hrs by MTT assay; format: functional, cell-based; conditions: CAKI-2, 72 h
A549 [3] = assay: Cytotoxicity against human A549 cells assessed as decrease in cell viability after 72 hrs by CCK8 assay; format: functional, cell-based; conditions: A549, 72 h
OVCAR-3 = assay: Cytotoxicity against human OVCAR3 cells assessed as decrease in cell viability after 72 hrs by CCK8 assay; format: functional, cell-based; conditions: OVCAR-3, 72 h
Lu-99 cell line [4] = assay: Cytotoxicity against human LU99 cells assessed as decrease in cell viability after 72 hrs by CCK8 assay; format: functional, cell-based; conditions: Lu-99, 72 h
MIA PaCa-2 = assay: Cytotoxicity against human MIAPaCa2 cells assessed as decrease in cell viability after 72 hrs by CCK8 assay; format: functional, cell-based; conditions: MIA PaCa-2, 72 h
KG-1 = assay: Cytotoxicity against human KG1 cells assessed as decrease in cell viability after 48 hrs by MTT assay; format: functional, cell-based; conditions: KG-1, 48 h
HCT-116 = assay: Cytotoxicity against human HCT116 cells assessed as decrease in cell viability after 72 hrs by CCK8 assay; format: functional, cell-based; conditions: HCT-116, 72 h
MV4-11 = assay: Cytotoxicity against human MV4-11 cells assessed as decrease in cell viability after 48 hrs by MTT assay; format: functional, cell-based; conditions: MV4-11, 48 h
CWR22R = assay: Cytotoxicity against human 22Rv1 cells assessed as decrease in cell viability after 72 hrs by CCK8 assay; format: functional, cell-based; conditions: 22Rv1, 72 h
MKN-45 = assay: Cytotoxicity against human MKN45 cells assessed as decrease in cell viability after 72 hrs by CCK8 assay; format: functional, cell-based; conditions: MKN-45, 72 h
CAKI-1 = assay: Cytotoxicity against human Caki1 cells assessed as decrease in cell viability after 72 hrs by MTT assay; format: functional, cell-based; conditions: CAKI-1, 72 h
A549 [5] = assay: Antitumor activity against human A549 cells xenografted in BALB/cSLC-nu/nu mouse assessed as tumor growth inhibition at 5 mg/kg, iv qd administered for 14 days measured on day 15 relative to control; format: functional; conditions: read-out: TGI
[6] = Cytotoxicity against human OVSAHO cells assessed as decrease in cell viability after 72 hrs by CCK8 assay; format: functional, cell-based
A2780 = assay: Cytotoxicity against human A2780 cells assessed as decrease in cell viability after 72 hrs by CCK8 assay; format: functional, cell-based; conditions: A2780, 72 h
ML-2 = assay: Cytotoxicity against human ML2 cells assessed as decrease in cell viability after 48 hrs by MTT assay; format: functional, cell-based; conditions: ML-2, 48 h
UMUC3 = assay: Cytotoxicity against human UM-UC-3 cells assessed as decrease in cell viability after 72 hrs by CCK8 assay; format: functional, cell-based; conditions: UMUC3, 72 h
769-P = assay: Cytotoxicity against human 769-P cells assessed as decrease in cell viability after 72 hrs by MTT assay; format: functional, cell-based
DU-4475 = assay: Cytotoxicity against human DU4475 cells assessed as decrease in cell viability after 72 hrs by CCK8 assay; format: functional, cell-based; conditions: DU-4475, 72 h
[7] = Cytotoxicity against human VMRC-RCW cells assessed as decrease in cell viability after 72 hrs by MTT assay; format: functional, cell-based
RMG-I = assay: Cytotoxicity against human RMG-1 cells assessed as decrease in cell viability after 72 hrs by CCK8 assay; format: functional, cell-based
Caov-3 cell line = assay: Cytotoxicity against human Caov3 cells assessed as decrease in cell viability after 72 hrs by CCK8 assay; format: functional, cell-based; conditions: Caov-3, 72 h
[8] = Cytotoxicity against human ES2 cells assessed as decrease in cell viability after 72 hrs by CCK8 assay; format: functional, cell-based; conditions: ES-2, 72 h
HepG2 = assay: Cytotoxicity against human HepG2 cells assessed as decrease in cell viability after 72 hrs by CCK8 assay; format: functional, cell-based; conditions: HepG2, 72 h
U-937 = assay: Cytotoxicity against human U937 cells assessed as decrease in cell viability after 48 hrs by MTT assay; format: functional, cell-based; conditions: U-937, 48 h
SK-OV-3 = assay: Cytotoxicity against human SKOV3 cells assessed as decrease in cell viability after 72 hrs by CCK8 assay; format: functional, cell-based; conditions: SK-OV-3, 72 h
T47D = assay: Cytotoxicity against human T47D cells assessed as decrease in cell viability after 72 hrs by CCK8 assay; format: functional, cell-based
Lu-99 cell line [9] = assay: Antitumor activity against human LU99 cells xenografted in BALB/cSLC-nu/nu mouse assessed as tumor growth inhibition at 5 mg/kg, iv qd administered for 14 days measured on day 15 relative to control; format: functional; conditions: Lu-99, iv, read-out: TGI
MDA-MB-231 = assay: Cytotoxicity against human MDA-MB-231 cells assessed as decrease in cell viability after 72 hrs by CCK8 assay; format: functional, cell-based; conditions: MDA-MB-231, 72 h
OV-90 = assay: Cytotoxicity against human OV90 cells assessed as decrease in cell viability after 72 hrs by CCK8 assay; format: functional, cell-based; conditions: OV-90, 72 h
THP-1 = assay: Cytotoxicity against human THP1 cells assessed as decrease in cell viability after 48 hrs by MTT assay; format: functional, cell-based; conditions: THP-1, 48 h
MKN-1 = assay: Cytotoxicity against human MKN1 cells assessed as decrease in cell viability after 72 hrs by CCK8 assay; format: functional, cell-based; conditions: MKN-1, 72 h
MOLM-13 = assay: Cytotoxicity against human MOLM13 cells assessed as decrease in cell viability after 48 hrs by MTT assay; format: functional, cell-based; conditions: MOLM-13, 48 h
KG-1a = assay: Cytotoxicity against human KG1a cells assessed as decrease in cell viability after 48 hrs by MTT assay; format: functional, cell-based
786-0 = assay: Cytotoxicity against human 786-O cells assessed as decrease in cell viability after 72 hrs by MTT assay; format: functional, cell-based; conditions: 786-0, 72 h

Cc1cc(O)c(-c2ccc([C@@H](C)CN)cc2)c2c1[nH]c(=O)c1sccc12
IC50 [1]: 7.1 nM | IC50 (PA-1): 5 nM | IC50 (SW626): 9.4 nM | IC50 [2]: 46 nM | IC50 (K562): 36.8 nM | IC50 (Daudi): 3.7 nM | IC50 (CAKI-2): 20.1 nM | IC50 (A549 [3]): 6.5 nM | IC50 (OVCAR-3): 12 nM | IC50 (Lu-99 cell line [4]): 1.5 nM | IC50 (MIA PaCa-2): 5.2 nM | IC50 (KG-1): 48.7 nM | IC50 (HCT-116): 4.8 nM | IC50 (MV4-11): 10.7 nM | IC50 (CWR22R): 8 nM | IC50 (MKN-45): 6.1 nM | IC50 (CAKI-1): 27.8 nM | inhibition in vivo at 5 mg/kg (A549 [5]): 65% | IC50 [6]: 13 nM | IC50 (A2780): 10 nM | IC50 (ML-2): 17.9 nM | IC50 (UMUC3): 5.7 nM | IC50 (769-P): 20.7 nM | IC50 (DU-4475): 6.4 nM | IC50 [7]: 19.9 nM | IC50 (RMG-I): 15 nM | IC50 (Caov-3 cell line): 5.1 nM | IC50 [8]: 5.6 nM | IC50 (HepG2): 8.5 nM | IC50 (U-937): 19.2 nM | IC50 (SK-OV-3): 6.3 nM | IC50 (T47D): 8.4 nM | inhibition in vivo at 5 mg/kg (Lu-99 cell line [9]): 104% | IC50 (MDA-MB-231): 14 nM | IC50 (OV-90): 8.8 nM | IC50 (THP-1): 23.5 nM | IC50 (MKN-1): 4.6 nM | IC50 (MOLM-13): 9 nM | IC50 (KG-1a): 26.2 nM | IC50 (786-0): 44.1 nM
